Reference: patent US12146004B2, “Polymyxin compounds and uses thereof” (priority 2014, dated 2024)
Values after ≈ are worked out from the molar mass of the structure shown. Bridge positions count the residues as written; N and C are the ends. Square brackets hold non-standard residues; d marks the D form. Peptide text beside a SMILES is read from it. * marks the point of attachment. ξ: configuration not given here. dPhe(4-CN) = N#Cc1ccc(C[C@@H](N)C(=O)O)cc1; Octanoyl(6-Me) = CCC(C)CCCCC(=O)*; dCha = N[C@H](CC1CCCCC1)C(=O)O; Thr(3ξ) = CC(O)[C@H](N)C(=O)O; X1 = CC(C)CN1CCNC[C@H]1C(=O)*; X28 = NCCC(C(=O)*)c1ccccc1Cl; X19 = NCCC(C(=O)*)C1CCCCC1; X22 = NC(CCC(=O)*)C1CCCCC1; Dab = NCC[C@H](N)C(=O)O; Dap = NC[C@H](N)C(=O)O

Legend:
Type in all cases: cell-based
[1] = test system: Acinetobacter baumannii
Method in brief: (§1)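 Strain panels of up to nine per species, with resistant and Polymyxin-tolerant strains included, were used for susceptibility testing; read-out was MIC (μg/mL).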

[2] = test system: Escherichia coli
Method in brief: as §1

[3] = test system: Klebsiella pneumoniae
Method in brief: as §1

[4] = test system: Pseudomonas aeruginosa
Method in brief: as §1

MIC A. baumanii ATCC BAA-747 [1]	MIC A. baumanii NCTC 13424 [1]	MIC E. coli 058 [2]	MIC E. coli ATCC 25922 [2]	MIC K. pneumoniae 065 [3]	MIC K. pneumoniae ATCC 13882 [3]	MIC P. aeruginosa ATCC 27853 [4]	MIC P. aeruginosa CCUG 59347 [4]	MIC A. baumanii 053 [1]	MIC A. baumanii 056 [1]	MIC E. coli 061 [2]	MIC K. pneumoniae 063 [3]	MIC P. aeruginosa 068 [4]	MIC P. aeruginosa 070 [4]	Compound	other results
0.5 µg/mL (≈ 0.445 µM)	0.25 µg/mL (≈ 0.222 µM)	16 µg/mL (≈ 14.2 µM)	0.125 µg/mL (≈ 0.111 µM)	32 µg/mL (≈ 28.5 µM)	0.25 µg/mL (≈ 0.222 µM)	0.5 µg/mL (≈ 0.445 µM)	1 µg/mL (≈ 0.889 µM)	–	–	–	–	–	–	CC(C)CCC(CCN)C(=O)N[C@H](C(=O)N[C@@H](CCN)C(=O)N[C@H]1CCNC(=O)[C@H]([C@@H](C)O)NC(=O)[C@H](CCN)NC(=O)[C@H](CCN)NC(=O)[C@H](CC(C)C)NC(=O)[C@@H](CC2CCCCC2)NC(=O)[C@H](CCN)NC1=O)[C@@H](C)O (single isomer, unassigned; isomer 2) [Example 89, 2-(2-aminoethyl)-5-methylhexanoyl polymyxin [D-cyclohexylalanine-6]nonapeptide. Isomer 2]	–
1 µg/mL (≈ 0.858 µM)	0.5 µg/mL (≈ 0.429 µM)	8 µg/mL (≈ 6.87 µM)	0.25 µg/mL (≈ 0.215 µM)	8 µg/mL (≈ 6.87 µM)	0.5 µg/mL (≈ 0.429 µM)	0.5 µg/mL (≈ 0.429 µM)	0.5 µg/mL (≈ 0.429 µM)	–	–	–	–	–	–	CC(C)C[C@@H]1NC(=O)[C@@H](CC2CCCCC2)NC(=O)[C@H](CCN)NC(=O)[C@@H](NC(=O)[C@H](CCN)NC(=O)[C@@H](NC(=O)C(CCN)c2ccccc2Cl)[C@@H](C)O)CCNC(=O)[C@H]([C@@H](C)O)NC(=O)[C@H](CCN)NC(=O)[C@H](CCN)NC1=O (stereo partly drawn) [Example 77, 4-amino-2-(2-chlorophenyl) butanoyl polymyxin [D-cyclohexylalanine]-6 nonapeptide] (X28-T[Dab][Dab][Dab][dCha]L[Dab][Dab]T; lactam 3-C)	–
0.125 µg/mL (≈ 0.111 µM)	0.125 µg/mL (≈ 0.111 µM)	4 µg/mL (≈ 3.56 µM)	0.25 µg/mL (≈ 0.223 µM)	4 µg/mL (≈ 3.56 µM)	0.125 µg/mL (≈ 0.111 µM)	0.25 µg/mL (≈ 0.223 µM)	0.5 µg/mL (≈ 0.445 µM)	64 µg/mL (≈ 57 µM)	32 µg/mL (≈ 28.5 µM)	16 µg/mL (≈ 14.3 µM)	>64 µg/mL	8 µg/mL (≈ 7.13 µM)	8 µg/mL (≈ 7.13 µM)	CC(C)C[C@@H]1NC(=O)[C@@H](CC2CCCCC2)NC(=O)[C@H](CCN)NC(=O)[C@@H](NC(=O)[C@H](CN)NC(=O)[C@@H](NC(=O)CCC(N)C2CCCCC2)[C@@H](C)O)CCNC(=O)[C@H]([C@@H](C)O)NC(=O)[C@H](CCN)NC(=O)[C@H](CCN)NC1=O (stereo partly drawn) [Example 63, 4-amino-4-cyclohexylbutanoyl L-Thr-L-Dap-polymyxin [D-cyclohexylalanine]-6 heptapeptide.] (X22-T[Dap][Dab][Dab][dCha]L[Dab][Dab]T; lactam 3-C)	–
0.25 µg/mL (≈ 0.203 µM)	0.25 µg/mL (≈ 0.203 µM)	4 µg/mL (≈ 3.26 µM)	0.125 µg/mL (≈ 0.102 µM)	8 µg/mL (≈ 6.51 µM)	–	0.25 µg/mL (≈ 0.203 µM)	0.5 µg/mL (≈ 0.407 µM)	>64 µg/mL	>64 µg/mL	16 µg/mL (≈ 13 µM)	64 µg/mL (≈ 52.1 µM)	32 µg/mL (≈ 26 µM)	>64 µg/mL	CCC(C)CCCCC(=O)N[C@@H](CCN)C(=O)N[C@H](C(=O)N[C@@H](CCN)C(=O)N[C@H]1CCNC(=O)[C@H]([C@@H](C)O)NC(=O)[C@H](CCN)NC(=O)[C@H](CCN)NC(=O)[C@H](CC(C)C)NC(=O)[C@@H](Cc2ccc(C#N)cc2)NC(=O)[C@H](CCN)NC1=O)C(C)O (stereo partly drawn) [Example 24, Polymyxin B[D-(4-cyano)Phe]-6] ({Octanoyl(6-Me)}-[Dab][Thr(3ξ)][Dab][Dab][Dab][dPhe(4-CN)]L[Dab][Dab]T; lactam 4-C)	MIC K. pneumoniae ATCC 4352 [3]: 0.125 µg/mL (≈ 0.102 µM)
0.25 µg/mL (≈ 0.22 µM)	0.25 µg/mL (≈ 0.22 µM)	8 µg/mL (≈ 7.03 µM)	0.25 µg/mL (≈ 0.22 µM)	8 µg/mL (≈ 7.03 µM)	0.25 µg/mL (≈ 0.22 µM)	0.5 µg/mL (≈ 0.44 µM)	1 µg/mL (≈ 0.879 µM)	>64 µg/mL	>64 µg/mL	16 µg/mL (≈ 14.1 µM)	64 µg/mL (≈ 56.3 µM)	16 µg/mL (≈ 14.1 µM)	16 µg/mL (≈ 14.1 µM)	CC(C)C[C@@H]1NC(=O)[C@@H](CC2CCCCC2)NC(=O)[C@H](CCN)NC(=O)[C@@H](NC(=O)[C@H](CCN)NC(=O)[C@@H](NC(=O)[C@@H]2CNCCN2CC(C)C)C(C)O)CCNC(=O)[C@H]([C@@H](C)O)NC(=O)[C@H](CCN)NC(=O)[C@H](CCN)NC1=O (stereo partly drawn) [Example 52, (S)-1-isobutylpiperazine-2-carbonyl polymyxin [D-cyclohexylalanine]-6 nonapeptide] (X1-[Thr(3ξ)][Dab][Dab][Dab][dCha]L[Dab][Dab]T; lactam 3-C)	–
0.125 µg/mL (≈ 0.111 µM)	0.125 µg/mL (≈ 0.111 µM)	4 µg/mL (≈ 3.56 µM)	0.125 µg/mL (≈ 0.111 µM)	0.5 µg/mL (≈ 0.445 µM)	0.5 µg/mL (≈ 0.445 µM)	0.5 µg/mL (≈ 0.445 µM)	0.5 µg/mL (≈ 0.445 µM)	64 µg/mL (≈ 57 µM)	64 µg/mL (≈ 57 µM)	16 µg/mL (≈ 14.3 µM)	8 µg/mL (≈ 7.13 µM)	2 µg/mL (≈ 1.78 µM)	4 µg/mL (≈ 3.56 µM)	CC(C)C[C@@H]1NC(=O)[C@@H](CC2CCCCC2)NC(=O)[C@H](CCN)NC(=O)[C@@H](NC(=O)[C@H](CN)NC(=O)[C@@H](NC(=O)C(CCN)C2CCCCC2)[C@@H](C)O)CCNC(=O)[C@H]([C@@H](C)O)NC(=O)[C@H](CCN)NC(=O)[C@H](CCN)NC1=O (stereo partly drawn) [Example 85, 4-amino-2-cyclohexylbutanoyl L-Thr-L-Dap-polymyxin [D-cyclohexylalanine-6]heptapeptide.] (X19-T[Dap][Dab][Dab][dCha]L[Dab][Dab]T; lactam 3-C)	MIC E. coli NCTC 9001 [2]: 0.06 µg/mL (≈ 0.0535 µM)
1 µg/mL (≈ 0.801 µM)	–	2 µg/mL (≈ 1.6 µM)	1 µg/mL (≈ 0.801 µM)	8 µg/mL (≈ 6.41 µM)	–	1 µg/mL (≈ 0.801 µM)	–	64 µg/mL (≈ 51.3 µM)	32 µg/mL (≈ 25.6 µM)	8 µg/mL (≈ 6.41 µM)	>64 µg/mL	2 µg/mL (≈ 1.6 µM)	2 µg/mL (≈ 1.6 µM)	CCCCCCCCC1CNCC1C(=O)N[C@H](C(=O)N[C@@H](CCN)C(=O)N[C@H]1CCNC(=O)[C@H]([C@@H](C)O)NC(=O)[C@H](CCN)NC(=O)[C@H](CCN)NC(=O)[C@H](CC(C)C)NC(=O)[C@@H](Cc2ccccc2-c2ccccc2)NC(=O)[C@H](CCN)NC1=O)C(C)O (single isomer, unassigned; isomer 1) [Example 9, trans-4-octylpyrrolidine-3-carbonyl polymyxin [D-(2-phenyl)Phe]-6] nonapeptide. Isomer 1]	MIC E. coli 059 [2]: 2 µg/mL (≈ 1.6 µM); MIC E. coli 060 [2]: 4 µg/mL (≈ 3.2 µM); MIC K. pneumoniae 062 [3]: 64 µg/mL (≈ 51.3 µM); MIC K. pneumoniae 064 [3]: 64 µg/mL (≈ 51.3 µM); MIC K. pneumoniae 066 [3]: 32 µg/mL (≈ 25.6 µM); MIC K. pneumoniae 067 [3]: >64 µg/mL; MIC K. pneumoniae ATCC 4352 [3]: 0.5 µg/mL (≈ 0.4 µM)
